Details: Liquid; for mass density: Vibrating tube method; for speed of sound: Pulse-echo method

CCCn1cc[n+](C)c1.O=S(=O)([N-]S(=O)(=O)C(F)(F)F)C(F)(F)F
Details | mass density [kg/m3] | speed of sound [m/s]
298.15 K, 100 kPa | 1475.7 | –
298.15 K, 500 kPa | – | 1236.4
298.15 K, 1830 kPa | 1476.98 | –
298.15 K, 3500 kPa | – | 1246.5
298.15 K, 7000 kPa | – | 1258.2
298.15 K, 10000 kPa | – | 1268
298.15 K, 10020 kPa | 1483.13 | –
298.15 K, 13500 kPa | – | 1279.2
298.15 K, 14980 kPa | 1486.69 | –
298.15 K, 17000 kPa | – | 1290
298.15 K, 19750 kPa | 1490.06 | –
298.15 K, 20000 kPa | – | 1299.2
298.15 K, 25860 kPa | 1494.22 | –
298.15 K, 30000 kPa | – | 1329.2
298.15 K, 31480 kPa | 1497.95 | –
298.15 K, 37770 kPa | 1502.01 | –
298.15 K, 40000 kPa | – | 1357.5
298.15 K, 44170 kPa | 1506.01 | –
298.15 K, 50000 kPa | – | 1384.5
298.15 K, 50750 kPa | 1509.97 | –
298.15 K, 59590 kPa | 1515.1 | –
298.15 K, 60000 kPa | – | 1410.3
298.15 K, 70000 kPa | – | 1435.1
298.15 K, 80000 kPa | – | 1459
298.15 K, 90000 kPa | – | 1482.1
298.15 K, 100000 kPa | – | 1504.5
298.15 K, 112500 kPa | – | 1531.7
298.15 K, 125000 kPa | – | 1557.6
298.15 K, 137510 kPa | – | 1582.8
298.15 K, 150000 kPa | – | 1606
298.15 K, 162500 kPa | – | 1629.6
298.15 K, 175000 kPa | – | 1652.5
298.15 K, 187500 kPa | – | 1674.5
298.15 K, 200000 kPa | – | 1695.9
299.15 K, 100 kPa | 1474.62 | –
299.15 K, 1830 kPa | 1475.87 | –
299.15 K, 10020 kPa | 1482.12 | –
299.15 K, 14980 kPa | 1485.68 | –
299.15 K, 19750 kPa | 1489.01 | –
299.15 K, 25860 kPa | 1493.18 | –
299.15 K, 31480 kPa | 1496.89 | –
299.15 K, 37770 kPa | 1500.95 | –
299.15 K, 44170 kPa | 1504.95 | –
299.15 K, 50750 kPa | 1509.07 | –
299.15 K, 59590 kPa | 1514.22 | –
300.15 K, 100 kPa | 1473.66 | –
300.15 K, 1830 kPa | 1474.94 | –
300.15 K, 10020 kPa | 1481.1 | –
300.15 K, 14980 kPa | 1484.68 | –
300.15 K, 19750 kPa | 1488.07 | –
300.15 K, 25860 kPa | 1492.27 | –
300.15 K, 31480 kPa | 1496.03 | –
300.15 K, 37770 kPa | 1500.11 | –
300.15 K, 44170 kPa | 1504.13 | –
300.15 K, 50750 kPa | 1508.14 | –
300.15 K, 59590 kPa | 1513.35 | –
301.15 K, 100 kPa | 1472.79 | –
301.15 K, 1830 kPa | 1474.07 | –
301.15 K, 10020 kPa | 1480.19 | –
301.15 K, 14980 kPa | 1483.74 | –
301.15 K, 19750 kPa | 1487.1 | –
301.15 K, 25860 kPa | 1491.35 | –
301.15 K, 31480 kPa | 1495.08 | –
301.15 K, 37770 kPa | 1499.16 | –
301.15 K, 44170 kPa | 1503.18 | –
301.15 K, 50750 kPa | 1507.27 | –
301.15 K, 59590 kPa | 1512.51 | –
302.15 K, 100 kPa | 1471.92 | –
302.15 K, 1830 kPa | 1473.15 | –
302.15 K, 10020 kPa | 1479.27 | –
302.15 K, 14980 kPa | 1482.84 | –
302.15 K, 19750 kPa | 1486.21 | –
302.15 K, 25860 kPa | 1490.42 | –
302.15 K, 31480 kPa | 1494.19 | –
302.15 K, 37770 kPa | 1498.29 | –
302.15 K, 44170 kPa | 1502.37 | –
302.15 K, 50750 kPa | 1506.46 | –
302.15 K, 59590 kPa | 1511.74 | –
303.15 K, 100 kPa | 1471.14 | –
303.15 K, 1830 kPa | 1472.39 | –
303.15 K, 10020 kPa | 1478.49 | –
303.15 K, 14980 kPa | 1482 | –
303.15 K, 19750 kPa | 1485.41 | –
303.15 K, 25860 kPa | 1489.57 | –
303.15 K, 31480 kPa | 1493.32 | –
303.15 K, 37770 kPa | 1497.43 | –
303.15 K, 44170 kPa | 1501.5 | –
303.15 K, 50750 kPa | 1505.6 | –
303.15 K, 59590 kPa | 1510.93 | –
308.15 K, 100 kPa | 1466.83 | –
308.15 K, 500 kPa | – | 1214
308.15 K, 1830 kPa | 1468.1 | –
308.15 K, 3500 kPa | – | 1224.4
308.15 K, 7000 kPa | – | 1236.2
308.15 K, 10000 kPa | – | 1246.2
308.15 K, 10020 kPa | 1474.12 | –
308.15 K, 13500 kPa | – | 1257.6
308.15 K, 14980 kPa | 1477.65 | –
308.15 K, 17000 kPa | – | 1268.6
308.15 K, 19750 kPa | 1480.89 | –
308.15 K, 20000 kPa | – | 1278
308.15 K, 25860 kPa | 1485.18 | –
308.15 K, 30000 kPa | – | 1308.6
308.15 K, 31480 kPa | 1489 | –
308.15 K, 37770 kPa | 1493.05 | –
308.15 K, 40000 kPa | – | 1337.1
308.15 K, 44170 kPa | 1497.15 | –
308.15 K, 50000 kPa | – | 1364.7
308.15 K, 50750 kPa | 1501.36 | –
308.15 K, 59590 kPa | 1506.81 | –
308.15 K, 60000 kPa | – | 1391
308.15 K, 70000 kPa | – | 1416.2
308.15 K, 80000 kPa | – | 1440.3
308.15 K, 90000 kPa | – | 1463.7
308.15 K, 100000 kPa | – | 1486.4
308.15 K, 112500 kPa | – | 1513.6
308.15 K, 125000 kPa | – | 1539.9
308.15 K, 137510 kPa | – | 1565.2
308.15 K, 150000 kPa | – | 1589.6
308.15 K, 162500 kPa | – | 1613.3
308.15 K, 175000 kPa | – | 1636.3
308.15 K, 187500 kPa | – | 1658.6
308.15 K, 200000 kPa | – | 1680.4
313.15 K, 100 kPa | 1462.07 | –
313.15 K, 1830 kPa | 1463.28 | –
313.15 K, 10020 kPa | 1469.31 | –
313.15 K, 14980 kPa | 1472.86 | –
313.15 K, 19750 kPa | 1476.15 | –
313.15 K, 25860 kPa | 1480.43 | –
313.15 K, 31480 kPa | 1484.36 | –
313.15 K, 37770 kPa | 1488.4 | –
313.15 K, 44170 kPa | 1492.56 | –
313.15 K, 50750 kPa | 1496.83 | –
313.15 K, 59590 kPa | 1502.49 | –
318.15 K, 100 kPa | 1457.05 | –
318.15 K, 500 kPa | – | 1192.3
318.15 K, 1830 kPa | 1458.31 | –
318.15 K, 3500 kPa | – | 1202.9
318.15 K, 7000 kPa | – | 1215
